From ChEMBL document CHEMBL1201862, “PubChem BioAssay data set” (2004)
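Test compounds were applied to cells in 96-well plates for 48 hours at 5 doses. GI50: concentration for 50% inhibition of growth.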 Activity calls are given as the source filed them. Rule as the data show it: active = GI50 up to about 1.1 µM and inactive = higher.

What was measured:
Experiment in all cases: growth of human tumour cells (NCI), 48 h
SF-268 = tested on: SF-268
MDA-MB-231 = tested on: MDA-MB-231
U-251 = tested on: U-251
A498 = tested on: A498
T47D = tested on: T47D
MCF7 = tested on: MCF7
OVCAR-3 = tested on: OVCAR-3
Malme-3M = tested on: Malme-3M
SK-MEL-5 = tested on: SK-MEL-5
DU-145 = tested on: DU-145
HOP-62 = tested on: HOP-62
NCI-H522 = tested on: NCI-H522
HCC 2998 = tested on: HCC 2998
NCI/ADR-RES = tested on: NCI/ADR-RES
ACHN = tested on: ACHN
CAKI-1 = tested on: CAKI-1
Hs-578T = tested on: Hs-578T
SN12C = tested on: SN12C
NCI-H460 = tested on: NCI-H460

SMILES | GI50 (SF-268) | GI50 (MDA-MB-231) | GI50 (U-251) | GI50 (A498) | GI50 (T47D) | GI50 (MCF7) | GI50 (OVCAR-3) | GI50 (Malme-3M) | GI50 (SK-MEL-5) | GI50 (DU-145) | GI50 (HOP-62) | GI50 (NCI-H522) | GI50 (HCC 2998) | GI50 (NCI/ADR-RES) | GI50 (ACHN) | GI50 (CAKI-1) | GI50 (Hs-578T) | GI50 (SN12C) | GI50 (NCI-H460)
C#C[C@]1(O)CC[C@H]2[C@@H]3CCC4=C/C(=N/OC(=O)c5cccc6c(=O)c7ccccc7[nH]c56)CCC4[C@H]3CC[C@@]21CC (stereo partly specified) | 66.4 µM (inactive) | 54.8 µM (inactive) | 9.89 µM (inactive) | 10.1 µM (inactive) | 24.8 µM (inactive) | 25.1 µM (inactive) | 18.7 µM (inactive) | 34.7 µM (inactive) | 14.9 µM (inactive) | 55.2 µM (inactive) | 49.1 µM (inactive) | 20.8 µM (inactive) | 26.5 µM (inactive) | 15.8 µM (inactive) | 26.2 µM (inactive) | 32.4 µM (inactive) | > 100 µM (inactive) | 39.6 µM (inactive) | 14.3 µM (inactive)
O=C(O)CC(NC(=O)/C(=C/c1ccccc1)NC(=O)c1ccccc1)C(=O)O (stereo unspecified) | > 100 µM (inactive) | > 100 µM (inactive) | > 100 µM (inactive) | > 100 µM (inactive) | > 100 µM (inactive) | > 100 µM (inactive) | > 100 µM (inactive) | > 100 µM (inactive) | > 100 µM (inactive) | > 100 µM (inactive) | > 100 µM (inactive) | > 100 µM (inactive) | > 100 µM (inactive) | > 100 µM (inactive) | > 100 µM (inactive) | > 100 µM (inactive) | > 100 µM (inactive) | > 100 µM (inactive) | > 100 µM (inactive)
CCCCCCCCCCCCCCCC(=O)Nc1ccn(C2CCC(COP(=O)(O)OCC3OC(n4cc(F)c(=O)[nH]c4=O)CC3OC(C)=O)O2)c(=O)n1 (stereo unspecified) | 1.45 µM (inactive) | 29.4 µM (inactive) | 12.1 µM (inactive) | 11.3 µM (inactive) | 18.3 µM (inactive) | 2.28 µM (inactive) | 19.4 µM (inactive) | 15.6 µM (inactive) | 13.5 µM (inactive) | 9.25 µM (inactive) | 5.06 µM (inactive) | 12.3 µM (inactive) | 3.01 µM (inactive) | 16.7 µM (inactive) | 3.14 µM (inactive) | 4.44 µM (inactive) | 29.2 µM (inactive) | 13.1 µM (inactive) | 0.531 µM (active)
COC1C(=O)CCC2(CO2)C1(O)C1(C)OC1CCC(C)C (stereo unspecified) | 78.3 µM (inactive) | 15.6 µM (inactive) | 13.5 µM (inactive) | > 100 µM (inactive) | 52.8 µM (inactive) | 54.8 µM (inactive) | > 100 µM (inactive) | 30.2 µM (inactive) | 21.5 µM (inactive) | 5.6 µM (inactive) | 54.5 µM (inactive) | > 100 µM (inactive) | 47.2 µM (inactive) | > 100 µM (inactive) | 28.2 µM (inactive) | > 100 µM (inactive) | 84.3 µM (inactive) | 23.3 µM (inactive) | < 0.01 µM (active)
COC(=O)C1=CSC2(S1)C(C(=O)OC)=CSc1c2ss/c1=N\c1ccccc1 (stereo unspecified) | 3.02 µM (inactive) | 2.07 µM (inactive) | 2.4 µM (inactive) | 1.64 µM (inactive) | 7.64 µM (inactive) | 3.79 µM (inactive) | 3.24 µM (inactive) | 0.813 µM (active) | 2.53 µM (inactive) | 2.96 µM (inactive) | 2.88 µM (inactive) | 1.25 µM (inactive) | 1.72 µM (inactive) | 1.69 µM (inactive) | 2.56 µM (inactive) | 2.98 µM (inactive) | 2.55 µM (inactive) | 1.88 µM (inactive) | 3.07 µM (inactive)
C#CCOCC12C=CC(O1)C1C(=O)OCC12 (stereo unspecified) | > 100 µM (inactive) | > 100 µM (inactive) | > 100 µM (inactive) | > 100 µM (inactive) | > 100 µM (inactive) | > 100 µM (inactive) | > 100 µM (inactive) | > 100 µM (inactive) | > 100 µM (inactive) | > 100 µM (inactive) | > 100 µM (inactive) | > 100 µM (inactive) | > 100 µM (inactive) | > 100 µM (inactive) | > 100 µM (inactive) | > 100 µM (inactive) | > 100 µM (inactive) | > 100 µM (inactive) | > 100 µM (inactive)
NS(=O)(=O)c1ccc(/N=N/c2nc3[nH]cnc(=S)c3[nH]2)cc1 | 0.885 µM (active) | 1.21 µM (inactive) | 6.24 µM (inactive) | 23 µM (inactive) | 1.16 µM (inactive) | 0.944 µM (active) | 1.22 µM (inactive) | 1.93 µM (inactive) | 5.36 µM (inactive) | 0.638 µM (active) | 0.564 µM (active) | 0.887 µM (active) | 0.682 µM (active) | 0.365 µM (active) | 3.1 µM (inactive) | 1.42 µM (inactive) | 6.41 µM (inactive) | 1.87 µM (inactive) | 0.82 µM (active)
Clc1ccc(CNc2nc(Cl)c3nc[nH]c3n2)cc1Cl | 25.4 µM (inactive) | 30.8 µM (inactive) | 36.2 µM (inactive) | 11.1 µM (inactive) | 6.71 µM (inactive) | 18 µM (inactive) | 18.9 µM (inactive) | 26.4 µM (inactive) | 16.7 µM (inactive) | 19 µM (inactive) | 27.4 µM (inactive) | 11.3 µM (inactive) | 19.8 µM (inactive) | 15.8 µM (inactive) | 31.2 µM (inactive) | 23.2 µM (inactive) | 21 µM (inactive) | 21.6 µM (inactive) | 28.2 µM (inactive)
O=C(O)Cc1cc(Cl)ccc1O | > 100 µM (inactive) | > 100 µM (inactive) | > 100 µM (inactive) | > 100 µM (inactive) | > 100 µM (inactive) | > 100 µM (inactive) | > 100 µM (inactive) | > 100 µM (inactive) | > 100 µM (inactive) | > 100 µM (inactive) | > 100 µM (inactive) | > 100 µM (inactive) | > 100 µM (inactive) | > 100 µM (inactive) | > 100 µM (inactive) | > 100 µM (inactive) | > 100 µM (inactive) | > 100 µM (inactive) | > 100 µM (inactive)
CC1OC(OC2C(O)COC(OC3C(C)OC(OC4C(OC(=O)[C@]56CCC(C)(C)C[C@@H]5C5=CCC7[C@@]8(C)C[C@H](O)[C@H](OC9OC(CO)C(O)C(OC%10OC(CO)C(O)C(O)C%10O)C9O)[C@@](C)(CO)[C@@H]8CC[C@@]7(C)[C@]5(C)CC6)OCC(O)C4O)C(O)C3O)C2O)C(O)C(O)C1O (stereo partly specified) | 21.4 µM (inactive) | 16.3 µM (inactive) | 17.5 µM (inactive) | 11.8 µM (inactive) | 16 µM (inactive) | 16.4 µM (inactive) | 14.9 µM (inactive) | 13.8 µM (inactive) | 16 µM (inactive) | 14.6 µM (inactive) | 14.3 µM (inactive) | 15.5 µM (inactive) | 16.2 µM (inactive) | 14.5 µM (inactive) | 17.7 µM (inactive) | 3.19 µM (inactive) | 19.5 µM (inactive) | 10.6 µM (inactive) | 19 µM (inactive)
C#CCSc1nc(-c2ccco2)n[nH]1 | > 100 µM (inactive) | > 100 µM (inactive) | > 100 µM (inactive) | > 100 µM (inactive) | > 100 µM (inactive) | > 100 µM (inactive) | > 100 µM (inactive) | > 100 µM (inactive) | > 100 µM (inactive) | > 100 µM (inactive) | 49.3 µM (inactive) | > 100 µM (inactive) | > 100 µM (inactive) | > 100 µM (inactive) | > 100 µM (inactive) | > 100 µM (inactive) | > 100 µM (inactive) | > 100 µM (inactive) | > 100 µM (inactive)
CC1C(C#N)(C#N)C(C#N)=C(N)C1(C)[N+](=O)[O-] (stereo unspecified) | > 100 µM (inactive) | > 100 µM (inactive) | 48 µM (inactive) | 68.2 µM (inactive) | > 10 µM (inactive) | 24.8 µM (inactive) | 67.9 µM (inactive) | 48.2 µM (inactive) | > 100 µM (inactive) | > 100 µM (inactive) | > 100 µM (inactive) | 36.7 µM (inactive) | 47.6 µM (inactive) | > 100 µM (inactive) | 87.5 µM (inactive) | 5.27 µM (inactive) | 64.9 µM (inactive) | 58.2 µM (inactive) | 30.6 µM (inactive)
Cc1ccc(S(=O)(=O)n2c3c(c4ccccc42)CCN2C(=O)C(S(=O)(=O)c4ccccc4)=CCC32)cc1 (stereo unspecified) | 0.238 µM (active) | 0.186 µM (active) | 0.22 µM (active) | 0.213 µM (active) | 0.154 µM (active) | 0.164 µM (active) | 0.164 µM (active) | 0.213 µM (active) | 0.165 µM (active) | 0.17 µM (active) | 0.24 µM (active) | 0.259 µM (active) | 0.212 µM (active) | 0.218 µM (active) | 0.193 µM (active) | 0.262 µM (active) | 0.579 µM (active) | 0.211 µM (active) | 0.368 µM (active)
CCCCCCCCC/C=C1/CC(CO)(COC(=O)C2CCCCC2)OC1=O (stereo unspecified) | > 100 µM (inactive) | > 100 µM (inactive) | > 100 µM (inactive) | > 100 µM (inactive) | > 100 µM (inactive) | > 100 µM (inactive) | > 100 µM (inactive) | 43.3 µM (inactive) | 43.2 µM (inactive) | > 100 µM (inactive) | 63.7 µM (inactive) | 63.1 µM (inactive) | > 100 µM (inactive) | > 100 µM (inactive) | > 100 µM (inactive) | > 100 µM (inactive) | 62.8 µM (inactive) | > 100 µM (inactive) | > 100 µM (inactive)
